Measured values as given in PubChem BioAssay AID2334 (Sanford-Burnham Center for Chemical Genomics, 2010).

System: HEK293 NOD2/MDP-stimulated NF-kB reporter inhibition
Assay: PubChem AID 2334

Work on `O=C(Nc1nc2c(F)cc(F)cc2s1)c1ccc([N+](=O)[O-])o1` yielded an IC50 of 15.6 µM.
